Experiment [1] relates to Apo E2/E2 transgenic mice. Description: Effects on triglyceride and cholesterol metabolism in Apo E2/E2 transgenic mice. It counts as in vivo. Particulars: gavage, 50 mg/kg/day, seven days. The method, then:
FIGS. 19a, 19b, 19c, 19d, 20a, 20b, 20c and 20d illustrate the effects of treatment with compound 2 (Cpd2), compound 13 (Cpd13), compound 33 (Cpd33) and compound 39 (Cpd39) on triglyceride and cholesterol metabolism in Apo E2/E2 transgenic mice treated by gavage with the compound at a dose of 50 mg/kg/day, for seven days.
Apo E2/E2 transgenic mice were housed in a 12-hour light/dark cycle at a constant temperature of 20±3° C. After a 1-week acclimatization period, the mice were weighed and divided into groups of 6 animals selected such that the distribution of body weight was uniform. The test compounds were suspended in carboxymethylcellulose and administered by gastric lavage at the indicated doses, once a day for 7 days. Animals had access to food and water ad libitum. At the end of the experiments, animals were weighed and sacrificed under anesthesia. Blood was collected on EDTA. Plasma was isolated by centrifugation at 3000 rpm for 20 minutes. Liver samples were removed and stored frozen in liquid nitrogen for later analysis.
Lipid concentrations in plasma (total cholesterol and free cholesterol, triglycerides and phospholipids) were determined by a colorimetric assay (Boehringer, Mannheim, Germany) according to the supplier's instructions. Plasma concentrations of apolipoproteins AI, AII and CIII were determined as previously described (Raspe et al. 1999, Asset G et al., Lipids, 1999).

In experiment [2] the target is T1, PPARγ (Homo sapiens, UniProt P37231).
T1 construct: expressed in transfected cells; host or cells: COS-7 cells
T1 sequence (P37231 238-503 limits assumed): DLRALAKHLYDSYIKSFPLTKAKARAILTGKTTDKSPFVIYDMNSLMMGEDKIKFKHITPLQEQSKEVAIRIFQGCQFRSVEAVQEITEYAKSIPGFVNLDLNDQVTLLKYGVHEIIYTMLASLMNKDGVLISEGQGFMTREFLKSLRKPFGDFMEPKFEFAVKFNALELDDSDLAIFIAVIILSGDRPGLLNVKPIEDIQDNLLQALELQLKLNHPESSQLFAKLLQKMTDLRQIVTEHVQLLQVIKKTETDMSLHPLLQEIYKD
Briefly: PPARγ/Gal4 transactivation system in COS-7 cells. The format is cell-based. The following applies: 24 hours. The protocol:
(§1) COS-7 cells were incubated with different concentrations of the inventive compounds for 24 hours. The results are expressed as the induction factor (ratio of luminescent signal obtained with the compound and that observed without the compound) after the different treatments.
(§2) PPAR activation was tested in vitro in RK13 epitheloid or COS-7 cell lines by measuring the transcriptional activity of chimeras composed of the DNA binding domain of the yeast gal4 transcription factor and the ligand binding domain of the different PPARs. These latter results were then confirmed in cell lines according to the following protocols:
(§3) RK13 cells were from ECACC (Porton Down, UK), COS-7 cells were from the ATCC (American Type Culture Collection) and were grown in DMEM medium supplemented with 10% (VN) fetal calf serum, 100 U/ml penicillin (Gibco, Paisley, UK) and 2 mM L-glutamine (Gibco, Paisley, UK). The culture medium was changed every two days. Cells were kept at 37° C. in a humidified 95% air/5% CO2 atmosphere.
(§4) The plasmids pG5TkpGL3, pRL-CMV, pGal4-hPPARα, pGal4-hPPARγ, pGal4-hPPARδ and pGal4-φ have been described by Raspe, Madsen et al. (1999). The pGal4-mPPARα, pGal4-hPPARγ and pGal4-hPPARδ constructs were obtained by cloning into the pGal4-φ vector of PCR-amplified DNA fragments corresponding to the DEF domains of the human PPARα, PPARγ and PPARδ nuclear receptors.
(§5) RK13 cells were seeded in 24-well culture dishes at 5×10^4 cells/well, COS-7 cells in 96-well culture dishes at 5×10^4 cells/well and transfected for 2 hours with the reporter plasmid pG5TkpGL3 (50 ng/well), the expression vectors pGal4-φ, pGal4-mPPARα, pGal4-hPPARα, pGal4-hPPARγ, pGal4-hPPARδ (100 ng/well) and the transfection efficiency control vector pRL-CMV (1 ng/well) according to the previously described protocol (Raspe, Madsen et al. 1999), then incubated for 36 hours with the test compounds. At the end of the experiment, the cells were lysed (Gibco, Paisley, UK) and luciferase activity was determined with a Dual-Luciferase™ Reporter Assay System kit (Promega, Madison, Wis., USA) for RK13 cells and Steady Glow Luciferase (Promega) for COS-7 cells according to the supplier's instructions as previously described. The protein content of the cell extracts was then measured with the Bio-Rad Protein Assay (Bio-Rad, Munich, Germany) as directed by the supplier.

The target in experiment [3] is T2, PPARα (Homo sapiens, UniProt Q07869).
T2 construct: expressed in transfected cells; host or cells: COS-7 cells
T2 sequence (Q07869 239-466 limits assumed): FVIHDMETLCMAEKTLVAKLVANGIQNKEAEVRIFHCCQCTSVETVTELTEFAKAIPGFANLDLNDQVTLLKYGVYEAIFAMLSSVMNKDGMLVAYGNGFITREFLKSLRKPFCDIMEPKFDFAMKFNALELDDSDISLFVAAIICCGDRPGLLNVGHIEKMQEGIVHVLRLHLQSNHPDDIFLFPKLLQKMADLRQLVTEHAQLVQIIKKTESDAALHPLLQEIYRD
Description: PPARα/Gal4 transactivation system in COS-7 cells. The format is cell-based. Particulars: 24 hours. The protocol: as §1, §2, §3, §4, §5

For experiment [4], the target named is T3, PPARδ (Homo sapiens, UniProt Q03181).
T3 construct: expressed in transfected cells; host or cells: COS-7 cells
T3 sequence (Q03181 211-439 limits assumed): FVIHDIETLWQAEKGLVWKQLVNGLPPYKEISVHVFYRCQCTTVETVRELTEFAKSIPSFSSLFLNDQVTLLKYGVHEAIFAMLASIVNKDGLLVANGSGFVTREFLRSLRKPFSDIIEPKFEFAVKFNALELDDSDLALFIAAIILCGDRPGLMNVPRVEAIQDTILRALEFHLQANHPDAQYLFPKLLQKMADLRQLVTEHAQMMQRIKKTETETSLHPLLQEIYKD
Description: PPARδ/Gal4 transactivation system in COS-7 cells. The format is cell-based. The following applies: 24 hours. The protocol: as §1, §2, §3, §4, §5

The test system of experiment [5] is LDL. Briefly: Protection against LDL oxidation by copper (conjugated diene formation). It counts as biochemical. The following applies: 10^−4M; for rate of diene formation: FIG. 2b, copper alone 2.2. The protocol: Unless otherwise indicated, the reagents were from Sigma (St Quentin, France). LDL were prepared according to the method described by Lebeau et al. (Lebeau, Furman et al. 2000).
The solutions of test compounds were prepared at 10^−2 M concentration in bicarbonate buffer (pH 9) and diluted in PBS to obtain final concentrations ranging from 0.1 to 100 μM
Prior to oxidation, EDTA was removed from the LDL preparation by dialysis. Oxidation then took place at 30° C. by adding 100 μl of 16.6 μM CuSO4 solution to 160 μL of LDL (125 μg protein/ml) and 20 μl of a test compound solution. The formation of dienes, the species under observation, was followed by measuring optical density at 232 nm in the samples treated with the compounds in the presence or absence of copper. Optical density at 232 nm was measured every 10 minutes for 8 hours in a thermostated spectrophotometer (Tecan Ultra 380). The analyses were performed in triplicate. The compounds were considered to have antioxidant activity when they induced a longer lag phase and reduced the rate of oxidation and the amount of dienes formed in comparison with the control sample.

The mark [6] stands for this setting: FIG. 2a, copper alone 132 minutes.

On to `Cc1cc(/C=C/C(=O)c2ccc(Oc3ccccc3)cc2)cc(C)c1OC(C)(C)C(=O)O` [compound 33, 1-(4-Phenyloxyphenyl)-3-(4-carboxydimethylmethyloxy-3,5-dimethylphenyl)prop-2-en-1-one], for which the plasma cholesterol result in experiment [1] was “decrease”. For the same compound, the plasma triglycerides entry in experiment [1] is given as “decrease”. The Induction factor in experiment [2] (0.001 μM) worked out at 1.18; in experiment [2] (0.003 μM) it was 1.61; in experiment [2] (0.01 μM) it was 2.65; in experiment [2] (0.03 μM), 3.54; in experiment [2] (0.1 μM) it was 4.88; in experiment [2] (0.3 μM), 5.95. For the same compound, the Induction factor was 6.93 in experiment [2] (1 μM); 7.99 in experiment [2] (3 μM); 6.30 in experiment [2] (10 μM); 5.23 in experiment [3] (0.001 μM); 15.18 in experiment [3] (0.003 μM); 19.53 in experiment [3] (0.01 μM). Further, the Induction factor in experiment [3] (0.03 μM) amounted to 19.71; in experiment [3] (0.1 μM), 19.17; in experiment [3] (0.3 μM) it was 20.82; in experiment [3] (1 μM) it was 19.97; in experiment [4] (0.001 μM) it was 1.17; in experiment [4] (0.003 μM), 1.23. The Induction factor was found to be 1.87 in experiment [4] (0.01 μM); 5.29 in experiment [4] (0.03 μM); 15.01 in experiment [4] (0.1 μM); 33.89 in experiment [4] (0.3 μM); 74.09 in experiment [4] (1 μM); 90.84 in experiment [4] (3 μM). The same compound displayed a lag phase in experiment [5] (FIG. 7a, absence of compounds 67.3 minutes) of 148 min. For the same compound, in experiment [5] (FIG. 7b, absence of compounds 2.5), the diene oxidation rate is given as 1.4 nmol/min/mg of LDL. The “total amount of dienes formed” value in experiment [5] (FIG. 7c, absence of compounds 432.5) was 399 nmol/mg of LDL.
Take `Cc1cc(/C=C/C(=O)c2ccc(OCCSC3CCCCC3)cc2)cc(C)c1OC(C)(C)C(=O)O` [compound 23, 1-(4-Cyclohexylthioethyloxyphenyl)-3-(4-carboxydimethylmethyloxy-3,5-dimethylphenyl)prop-2-en-1-one]: the Induction factor in experiment [2] (0.0003 μM) turned out to be 1.02; in experiment [2] (0.001 μM) it was 1.43; in experiment [2] (0.003 μM), 2.86; in experiment [2] (0.01 μM), 3.48; in experiment [2] (0.03 μM), 5.04; in experiment [2] (0.1 μM), 6.17. In addition, the Induction factor in experiment [2] (0.3 μM) was 6.84; in experiment [2] (1 μM), 7.24; in experiment [2] (3 μM), 6.98; in experiment [3] (0.0003 μM) it was 0.92; in experiment [3] (0.001 μM) it was 1.11; in experiment [3] (0.003 μM) it was 1.33. The Induction factor in experiment [3] (0.01 μM) turned out to be 2.35; in experiment [3] (0.03 μM) it was 4.22; in experiment [3] (0.1 μM) it was 7.16; in experiment [3] (0.3 μM), 8.08; in experiment [3] (1 μM) it was 8.35; in experiment [3] (3 μM) it was 7.15. The lag phase in experiment [5] (FIG. 4a, copper alone 61 minutes) was found to be 96.4 min. Besides, the diene formation rate in experiment [5] (FIG. 4b, absence of compounds 1.9) was 1.3 nmol/min/mg of LDL. Besides, in experiment [5] (FIG. 4c, absence of compound 370.9), the “total amount of dienes formed” value is 340.3 nmol/mg of LDL.
For the compound `Cc1cc(/C=C/C(=O)c2ccc(OCCCCCC3CCSS3)cc2)cc(C)c1OC(C)(C)C(=O)O` (racemic) [compound 6, 1-(4-((R,S)-5-[1,2]dithiolan-3-ylpentyloxy)phenyl)-3-(4-carboxydimethylmethyloxy-3,5-dimethylphenyl)prop-2-en-1-one], the Induction factor in experiment [2] (1 μM) is given as 4.12; in experiment [2] (10 μM), 6.83; in experiment [3] (1 μM), 5.48; in experiment [3] (10 μM), 7.01. The compound further had a lag phase in experiment [5] (setting [6]) of 205 min. Also, in experiment [5], the “rate of diene formation” value is reported as 1.7 nmol/min/mg. The “total amount of dienes formed” value in experiment [5] (FIG. 2c, copper alone 511) was found to be 443 nmol/mg.
In the case of `Cc1cc(C(=O)/C=C/c2cc(C)c(OC(C)(C)C(=O)O)c(C)c2)cc(C)c1O` [compound 4, 1-(4-Hydroxy-3,5-dimethylphenyl)-3-(4-carboxydimethylmethyloxy-3,5-dimethylphenyl)prop-2-ene-1-one], the Induction factor was determined as 2.00 in experiment [2] (1 μM), 5.82 in experiment [2] (10 μM), 1.67 in experiment [3] (1 μM) and 9.92 in experiment [3] (10 μM). In addition, in experiment [5] (setting [6]), the lag phase worked out at 401 min. The “rate of diene formation” value in experiment [5] is 0.2 nmol/min/mg. In addition, the “total amount of dienes formed” value in experiment [5] (FIG. 2c, copper alone 511) is listed as 138 nmol/mg.

Source of the values: patent publication US7547729B2, “1,3-diphenylprop-2-en-1-one derivative compounds, preparation method thereof and uses of same” (Genfit, priority 2004, dated 2009).
